# Test system: 186277-243-T-J2-PDC complex spheroids, viability
# Assay: Anticancer human tumor 186277-243-T-J2-PDC patient-derived colon adenocarcinoma cell line growth inhibition [RAS]
# Details: for IC50: curve of first compound; for viability, T/C: stronger effect = lower value
# Method in brief: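 Agents were tested in combination matrices in half-log decrements from a top concentration at or near clinical Cmax (10 microM if undetermined). Targets were multi-cell spheroids of tumour lines plus HUVEC and MSC stromal cells.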
# [1] = second compound 0.000949 µM, first compound 0.000949 µM
# [2] = second compound 0.000949 µM, first compound 0.003 µM
# [3] = second compound 0.000949 µM, first compound 0.00949 µM
# [4] = second compound 0.000949 µM, first compound 0.03 µM
# [5] = second compound 0.000949 µM, first compound 0.0949 µM
# [6] = second compound 0.000949 µM, first compound 0.3 µM
# [7] = second compound 0.003 µM, first compound 0.000949 µM
# [8] = second compound 0.003 µM, first compound 0.003 µM
# [9] = second compound 0.003 µM, first compound 0.00949 µM
# [10] = second compound 0.003 µM, first compound 0.03 µM
# [11] = second compound 0.003 µM, first compound 0.0949 µM
# [12] = second compound 0.003 µM, first compound 0.3 µM
# [13] = second compound 0.00949 µM, first compound 0.000949 µM
# [14] = second compound 0.00949 µM, first compound 0.003 µM
# [15] = second compound 0.00949 µM, first compound 0.00949 µM
# [16] = second compound 0.00949 µM, first compound 0.03 µM
# [17] = second compound 0.00949 µM, first compound 0.0949 µM
# [18] = second compound 0.00949 µM, first compound 0.3 µM
# [19] = second compound 0.03 µM, first compound 0.000949 µM
# [20] = second compound 0.03 µM, first compound 0.003 µM
# [21] = second compound 0.03 µM, first compound 0.00949 µM
# [22] = second compound 0.03 µM, first compound 0.03 µM
# [23] = second compound 0.03 µM, first compound 0.0949 µM
# [24] = second compound 0.03 µM, first compound 0.3 µM
# [25] = second compound 0.0949 µM, first compound 0.000949 µM
# [26] = second compound 0.0949 µM, first compound 0.003 µM
# [27] = second compound 0.0949 µM, first compound 0.00949 µM
# [28] = second compound 0.0949 µM, first compound 0.03 µM
# [29] = second compound 0.0949 µM, first compound 0.0949 µM
# [30] = second compound 0.0949 µM, first compound 0.3 µM
# [31] = second compound 0.3 µM, first compound 0.000949 µM
# [32] = second compound 0.3 µM, first compound 0.003 µM
# [33] = second compound 0.3 µM, first compound 0.00949 µM
# [34] = second compound 0.3 µM, first compound 0.03 µM
# [35] = second compound 0.3 µM, first compound 0.0949 µM
# [36] = second compound 0.3 µM, first compound 0.3 µM
# 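Also: spheroids exposed to compounds for 7 days before viability read.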
compound,measurement,setting,value
C=CC(=O)N1CCN(c2nc(OCC3CCCN3C)nc3c(F)c(-c4nc(N)cc(C)c4C(F)(F)F)c(Cl)cc23)C(C)C1 (stereo unspecified) + CCn1c(-c2cccnc2C(C)OC)c2c3cc(ccc31)N1CCOC(CC(NC(=O)C(C(C)C)N(C)C(=O)C3(F)CCN(C(=O)C#CC(C)(C)N(C)C)CC3)C(=O)N3CCCC(N3)C(=O)OCC(C)(C)C2)C1,IC50,second compound 0.000949 µM,> 1000 nM
same,IC50,second compound 0.003 µM,> 1000 nM
same,IC50,second compound 0.00949 µM,> 1000 nM
same,IC50,second compound 0.03 µM,> 1000 nM
same,IC50,second compound 0.0949 µM,> 1000 nM
same,IC50,second compound 0.3 µM,> 1000 nM
same,"viability, T/C","second compound 0.000949 µM, first compound 0.00316 µM",88.7%
same,"viability, T/C","second compound 0.000949 µM, first compound 0.01 µM",79%
same,"viability, T/C","second compound 0.000949 µM, first compound 0.0316 µM",89.2%
same,"viability, T/C","second compound 0.000949 µM, first compound 0.1 µM",80.8%
same,"viability, T/C","second compound 0.000949 µM, first compound 0.316 µM",95.6%
same,"viability, T/C","second compound 0.000949 µM, first compound 1 µM",96.6%
same,"viability, T/C","second compound 0.003 µM, first compound 0.00316 µM",88%
same,"viability, T/C","second compound 0.003 µM, first compound 0.01 µM",97.6%
same,"viability, T/C","second compound 0.003 µM, first compound 0.0316 µM",83.4%
same,"viability, T/C","second compound 0.003 µM, first compound 0.1 µM",102%
same,"viability, T/C","second compound 0.003 µM, first compound 0.316 µM",94.1%
same,"viability, T/C","second compound 0.003 µM, first compound 1 µM",111%
same,"viability, T/C","second compound 0.00949 µM, first compound 0.00316 µM",91.6%
same,"viability, T/C","second compound 0.00949 µM, first compound 0.01 µM",102%
same,"viability, T/C","second compound 0.00949 µM, first compound 0.0316 µM",104%
same,"viability, T/C","second compound 0.00949 µM, first compound 0.1 µM",106%
same,"viability, T/C","second compound 0.00949 µM, first compound 0.316 µM",98.6%
same,"viability, T/C","second compound 0.00949 µM, first compound 1 µM",98.3%
same,"viability, T/C","second compound 0.03 µM, first compound 0.00316 µM",81.4%
same,"viability, T/C","second compound 0.03 µM, first compound 0.01 µM",105%
same,"viability, T/C","second compound 0.03 µM, first compound 0.0316 µM",95.8%
same,"viability, T/C","second compound 0.03 µM, first compound 0.1 µM",107%
same,"viability, T/C","second compound 0.03 µM, first compound 0.316 µM",116%
same,"viability, T/C","second compound 0.03 µM, first compound 1 µM",91.7%
same,"viability, T/C","second compound 0.0949 µM, first compound 0.00316 µM",85.3%
same,"viability, T/C","second compound 0.0949 µM, first compound 0.01 µM",109%
same,"viability, T/C","second compound 0.0949 µM, first compound 0.0316 µM",121%
same,"viability, T/C","second compound 0.0949 µM, first compound 0.1 µM",106%
same,"viability, T/C","second compound 0.0949 µM, first compound 0.316 µM",95.6%
same,"viability, T/C","second compound 0.0949 µM, first compound 1 µM",93.7%
same,"viability, T/C","second compound 0.3 µM, first compound 0.00316 µM",98.2%
same,"viability, T/C","second compound 0.3 µM, first compound 0.01 µM",93.7%
same,"viability, T/C","second compound 0.3 µM, first compound 0.0316 µM",111%
same,"viability, T/C","second compound 0.3 µM, first compound 0.1 µM",97.5%
same,"viability, T/C","second compound 0.3 µM, first compound 0.316 µM",114%
same,"viability, T/C","second compound 0.3 µM, first compound 1 µM",99.7%
CC1(C)CCC(Nc2ncc(C(F)(F)F)c(-c3c[nH]c4c(P(C)(C)=O)c(C#N)ccc34)n2)CN1 (stereo unspecified) + CCn1c(-c2cccnc2C(C)OC)c2c3cc(ccc31)N1CCOC(CC(NC(=O)C(C(C)C)N(C)C(=O)C3(F)CCN(C(=O)C#CC(C)(C)N(C)C)CC3)C(=O)N3CCCC(N3)C(=O)OCC(C)(C)C2)C1,IC50,second compound 0.000949 µM,> 300 nM
same,IC50,second compound 0.003 µM,236 nM
same,IC50,second compound 0.00949 µM,> 300 nM
same,IC50,second compound 0.03 µM,> 300 nM
same,IC50,second compound 0.0949 µM,135 nM
same,IC50,second compound 0.3 µM,36.1 nM
same,"viability, T/C",[1],79.3%
same,"viability, T/C",[2],84.8%
same,"viability, T/C",[3],112%
same,"viability, T/C",[4],81.5%
same,"viability, T/C",[5],57.9%
same,"viability, T/C",[6],51.6%
same,"viability, T/C",[7],100%
same,"viability, T/C",[8],90.2%
same,"viability, T/C",[9],103%
same,"viability, T/C",[10],83.5%
same,"viability, T/C",[11],58.6%
same,"viability, T/C",[12],47.4%
same,"viability, T/C",[13],104%
same,"viability, T/C",[14],104%
same,"viability, T/C",[15],103%
same,"viability, T/C",[16],85.6%
same,"viability, T/C",[17],56.3%
same,"viability, T/C",[18],50.5%
same,"viability, T/C",[19],92%
same,"viability, T/C",[20],98.6%
same,"viability, T/C",[21],108%
same,"viability, T/C",[22],85.1%
same,"viability, T/C",[23],57.9%
same,"viability, T/C",[24],49.7%
same,"viability, T/C",[25],107%
same,"viability, T/C",[26],103%
same,"viability, T/C",[27],91.9%
same,"viability, T/C",[28],71.1%
same,"viability, T/C",[29],53.3%
same,"viability, T/C",[30],43.3%
same,"viability, T/C",[31],102%
same,"viability, T/C",[32],96.3%
same,"viability, T/C",[33],87.8%
same,"viability, T/C",[34],51.9%
same,"viability, T/C",[35],36.8%
same,"viability, T/C",[36],30.8%
CCc1c2c(nc3ccc(O)cc13)-c1cc3c(c(=O)n1C2)COC(=O)[C@]3(O)CC + CCn1c(-c2cccnc2C(C)OC)c2c3cc(ccc31)N1CCOC(CC(NC(=O)C(C(C)C)N(C)C(=O)C3(F)CCN(C(=O)C#CC(C)(C)N(C)C)CC3)C(=O)N3CCCC(N3)C(=O)OCC(C)(C)C2)C1,IC50,second compound 0.000949 µM,9.82 nM
same,IC50,second compound 0.003 µM,13.6 nM
same,IC50,second compound 0.00949 µM,11.1 nM
same,IC50,second compound 0.03 µM,10.2 nM
same,IC50,second compound 0.0949 µM,7.53 nM
same,IC50,second compound 0.3 µM,2.85 nM
same,"viability, T/C",[1],157%
same,"viability, T/C",[2],83.7%
same,"viability, T/C",[3],52.5%
same,"viability, T/C",[4],35.5%
same,"viability, T/C",[5],17.3%
same,"viability, T/C",[6],12.1%
same,"viability, T/C",[7],142%
same,"viability, T/C",[8],91.9%
same,"viability, T/C",[9],55.8%
same,"viability, T/C",[10],37.4%
same,"viability, T/C",[11],18.2%
same,"viability, T/C",[12],12.9%
same,"viability, T/C",[13],142%
same,"viability, T/C",[14],85.4%
same,"viability, T/C",[15],53.8%
same,"viability, T/C",[16],34.4%
same,"viability, T/C",[17],15.9%
same,"viability, T/C",[18],12.1%
same,"viability, T/C",[19],139%
same,"viability, T/C",[20],80.6%
same,"viability, T/C",[21],54.1%
same,"viability, T/C",[22],33%
same,"viability, T/C",[23],17%
same,"viability, T/C",[24],12.2%
same,"viability, T/C",[25],102%
same,"viability, T/C",[26],68.6%
same,"viability, T/C",[27],48%
same,"viability, T/C",[28],25%
same,"viability, T/C",[29],15.1%
same,"viability, T/C",[30],10.3%
same,"viability, T/C",[31],69.7%
same,"viability, T/C",[32],47.5%
same,"viability, T/C",[33],34%
same,"viability, T/C",[34],17.7%
same,"viability, T/C",[35],10.5%
same,"viability, T/C",[36],8.49%
